Source: ChEMBL document CHEMBL1201862, “PubChem BioAssay data set” (2004)
Calls of active or inactive are those of the source.

Legend:
Mu-type opioid receptor = Mu-type opioid receptor (Homo sapiens, UniProt P35372); assay: (§1) Counterscreen for agonists of heterodimerization of the mu 1 (OPRM1) and delta 1 (OPRD1) opioid receptors: Luminescence-based cell-based high throughput dose response assay to identify agonists of OPRM1 homodimerization.; type: functional
Cytochrome P450 2C9 = Cytochrome P450 2C9 (Homo sapiens, UniProt P11712)
Chain of Cytochrome P450 2C9 (P11712 whole entry): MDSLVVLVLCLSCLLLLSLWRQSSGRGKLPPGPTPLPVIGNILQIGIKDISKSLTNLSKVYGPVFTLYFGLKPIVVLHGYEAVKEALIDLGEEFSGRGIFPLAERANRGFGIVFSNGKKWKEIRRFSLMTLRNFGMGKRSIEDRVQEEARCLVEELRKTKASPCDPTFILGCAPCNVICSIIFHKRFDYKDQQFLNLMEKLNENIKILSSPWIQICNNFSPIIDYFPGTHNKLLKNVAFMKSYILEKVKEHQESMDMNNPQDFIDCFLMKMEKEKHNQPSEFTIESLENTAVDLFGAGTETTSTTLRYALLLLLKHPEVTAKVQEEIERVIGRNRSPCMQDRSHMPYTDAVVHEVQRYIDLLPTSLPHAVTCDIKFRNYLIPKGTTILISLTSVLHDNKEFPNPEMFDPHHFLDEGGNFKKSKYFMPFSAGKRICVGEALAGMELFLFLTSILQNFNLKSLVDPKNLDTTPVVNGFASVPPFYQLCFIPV

[1] = target: 5-hydroxytryptamine receptor 5A (Homo sapiens, UniProt P47898); assay: Counterscreen for agonists of OPRM1-OPRD1 heterodimerization: luminescence-based cell-based high throughput dose response assay to identify agonists of 5-hydroxytryptamine (serotonin) 5A receptor (HTR5A). [Related pubchem assays (depositor defined):AID504326, AID504355, AID504692, AID504904, AID504905]; type: functional
Chain of 5-hydroxytryptamine receptor 5A (P47898 whole entry): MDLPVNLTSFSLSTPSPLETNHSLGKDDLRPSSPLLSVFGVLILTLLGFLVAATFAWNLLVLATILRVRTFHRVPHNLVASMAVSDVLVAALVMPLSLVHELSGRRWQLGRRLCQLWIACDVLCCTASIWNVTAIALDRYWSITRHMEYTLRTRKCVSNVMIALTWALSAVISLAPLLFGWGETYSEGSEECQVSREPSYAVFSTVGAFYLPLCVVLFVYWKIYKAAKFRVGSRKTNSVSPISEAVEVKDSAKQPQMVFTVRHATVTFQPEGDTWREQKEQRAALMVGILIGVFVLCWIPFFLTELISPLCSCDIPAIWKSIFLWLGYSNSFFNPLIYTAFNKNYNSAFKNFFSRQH

[2] = target: Delta-type opioid receptor (Homo sapiens, UniProt P41143); assay: as §1, with “of OPRD1” for “of OPRM1”, “homodimerization. [Related pubchem assays (depositor defined):AID504326, AID504355, AID504692, AID504904, AID504905]” for “homodimerization.”; type: functional
Chain of Delta-type opioid receptor (P41143 whole entry): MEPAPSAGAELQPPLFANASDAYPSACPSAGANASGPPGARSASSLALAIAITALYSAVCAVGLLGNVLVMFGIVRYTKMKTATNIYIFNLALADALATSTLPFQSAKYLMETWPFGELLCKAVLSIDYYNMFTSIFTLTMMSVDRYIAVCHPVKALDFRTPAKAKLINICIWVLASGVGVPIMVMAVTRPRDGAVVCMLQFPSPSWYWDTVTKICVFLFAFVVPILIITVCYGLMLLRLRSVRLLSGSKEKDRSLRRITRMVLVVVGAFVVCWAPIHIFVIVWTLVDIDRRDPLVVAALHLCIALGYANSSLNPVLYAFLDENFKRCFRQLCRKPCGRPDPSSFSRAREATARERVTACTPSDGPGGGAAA

[3] = target: T1, Ubiquitin-conjugating enzyme E2 N (Homo sapiens, UniProt P61088); type: functional
T1 sequence (P61088 whole entry): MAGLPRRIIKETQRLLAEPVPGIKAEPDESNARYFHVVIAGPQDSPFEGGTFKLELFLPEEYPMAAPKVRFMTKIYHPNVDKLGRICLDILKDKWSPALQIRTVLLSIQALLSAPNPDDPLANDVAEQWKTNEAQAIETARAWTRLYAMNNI

[4] = target: T1, Ubiquitin-conjugating enzyme E2 N; type: functional; remark: listed apart in the source
Bcl-2-related protein A1 = target: T2, Bcl-2-related protein A1 (Mus musculus, UniProt Q07440); type: functional;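 further: confirmatory dose–response counterscreen on Bfl-1, used to check hits from a UBC13 polyubiquitin inhibitor campaign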
T2 sequence (Q07440 whole entry): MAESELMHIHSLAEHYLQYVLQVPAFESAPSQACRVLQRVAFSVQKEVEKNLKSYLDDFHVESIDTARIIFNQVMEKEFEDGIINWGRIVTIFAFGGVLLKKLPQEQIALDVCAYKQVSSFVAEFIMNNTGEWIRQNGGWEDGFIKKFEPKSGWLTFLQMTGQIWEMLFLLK

[5] = target: T3, Zinc finger protein mex-5 (Caenorhabditis elegans, UniProt Q9XUB2); assay: potency of MEX-5 RNA-binding blockers – biochemical, C. elegans, fluorescence polarization, dose response (AID 1960)
T3 sequence (Q9XUB2 whole entry): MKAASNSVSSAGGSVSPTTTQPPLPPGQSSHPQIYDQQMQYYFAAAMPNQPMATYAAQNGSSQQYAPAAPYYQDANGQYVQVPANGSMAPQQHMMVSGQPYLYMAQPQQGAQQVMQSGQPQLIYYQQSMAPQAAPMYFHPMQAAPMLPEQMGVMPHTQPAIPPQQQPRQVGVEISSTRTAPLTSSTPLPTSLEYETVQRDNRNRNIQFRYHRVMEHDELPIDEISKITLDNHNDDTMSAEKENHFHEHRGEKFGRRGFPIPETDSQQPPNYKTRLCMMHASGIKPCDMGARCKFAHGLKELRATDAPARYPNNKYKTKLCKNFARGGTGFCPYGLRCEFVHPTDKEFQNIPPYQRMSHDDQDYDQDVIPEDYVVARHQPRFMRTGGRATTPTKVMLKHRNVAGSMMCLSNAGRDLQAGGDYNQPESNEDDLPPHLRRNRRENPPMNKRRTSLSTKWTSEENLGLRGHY

[6] = target: T4, RNA-binding protein pos-1 (Caenorhabditis elegans, UniProt G5EF15); assay: disruptors of C. elegans POS-1 RNA interaction – biochemical, fluorescence polarization, dose response (AID 1964);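 further: purified POS-1 fused to maltose binding protein made in E. coli; potency of compounds blocking POS-1 binding to fluorescent RNA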
T4 sequence (G5EF15 whole entry): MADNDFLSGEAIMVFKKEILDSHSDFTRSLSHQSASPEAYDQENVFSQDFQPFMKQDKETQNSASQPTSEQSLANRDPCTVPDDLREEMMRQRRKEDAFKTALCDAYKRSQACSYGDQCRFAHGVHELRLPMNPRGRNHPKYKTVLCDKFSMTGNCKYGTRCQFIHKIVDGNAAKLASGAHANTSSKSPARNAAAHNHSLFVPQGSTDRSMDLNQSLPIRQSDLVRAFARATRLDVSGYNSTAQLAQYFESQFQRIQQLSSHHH

[7] = test system: Streptococcus sp. 'group A'; assay: Streptococcus pyogenes SK(-)GAS viability under kanamycin – luminescence, BacTiterGlo, confirmation, counter-screen for streptokinase expression inhibitor project, dose response (AID 1900); type: functional, organism-based
Streptokinase A = target: T5, Streptokinase A (Streptococcus pyogenes serotype M1, UniProt P10520); assay: viability-normalized secreted streptokinase activity reduction – plasminogen activation absorbance, OD405, dose response (AID 1914); type: functional, Streptococcus pyogenes M1 GAS;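 further: secreted streptokinase activity via plasminogen activation per viability signal from cell pellet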
T5 sequence (P10520 whole entry): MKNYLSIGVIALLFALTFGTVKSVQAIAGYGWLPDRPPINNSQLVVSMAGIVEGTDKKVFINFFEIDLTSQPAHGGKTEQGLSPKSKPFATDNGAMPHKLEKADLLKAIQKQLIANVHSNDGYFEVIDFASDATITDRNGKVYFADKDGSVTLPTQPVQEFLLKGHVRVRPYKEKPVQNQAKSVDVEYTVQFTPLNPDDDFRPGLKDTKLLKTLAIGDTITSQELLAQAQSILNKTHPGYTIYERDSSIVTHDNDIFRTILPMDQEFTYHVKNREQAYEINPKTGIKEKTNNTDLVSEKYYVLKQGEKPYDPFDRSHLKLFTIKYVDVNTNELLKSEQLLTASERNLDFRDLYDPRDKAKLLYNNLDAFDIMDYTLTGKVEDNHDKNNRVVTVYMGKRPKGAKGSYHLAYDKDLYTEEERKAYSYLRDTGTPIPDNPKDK

[8] = target: T6, Endoribonuclease toxin MazF (Escherichia coli K-12, UniProt P0AE70); assay: activation of MazEF endoribonuclease cleavage – biochemical, fluorescence, single-stranded RNA substrate, uHTS hits, dose response (AID 588481); type: functional
T6 sequence (P0AE70 whole entry): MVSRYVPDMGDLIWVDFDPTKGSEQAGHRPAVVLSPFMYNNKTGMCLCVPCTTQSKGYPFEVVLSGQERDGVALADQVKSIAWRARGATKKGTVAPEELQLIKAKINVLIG

Streptococcus = assay: GAS UMAA2166 growth inhibition – luminescence, BacTiterGlo, counter-screen for streptokinase expression inhibitor project, dose response (AID 1915); type: functional, organism-based;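 further: potency for reduction of bacterial viability or growth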
[9] = A Cell Based Secondary Assay To Explore Cytotoxicity of Compounds that Sensitize Mycobacterium Tuberculosis to Beta-Lactam Antibiotics.; type: functional
[10] = target: T6, Endoribonuclease toxin MazF; assay: substrate-only fluorescence increase artefacts – biochemical, single-stranded RNase substrate, counter-screen for MazEF activator project, dose response (AID 588502); type: functional
[11] = target: T7, Calpain-2 catalytic subunit (Sus scrofa, UniProt P43367); assay: m-calpain protease blockers, concentration series – biochemical, fluorogenic peptide substrate, dose response (AID 1420); type: functional
T7 sequence (P43367 whole entry): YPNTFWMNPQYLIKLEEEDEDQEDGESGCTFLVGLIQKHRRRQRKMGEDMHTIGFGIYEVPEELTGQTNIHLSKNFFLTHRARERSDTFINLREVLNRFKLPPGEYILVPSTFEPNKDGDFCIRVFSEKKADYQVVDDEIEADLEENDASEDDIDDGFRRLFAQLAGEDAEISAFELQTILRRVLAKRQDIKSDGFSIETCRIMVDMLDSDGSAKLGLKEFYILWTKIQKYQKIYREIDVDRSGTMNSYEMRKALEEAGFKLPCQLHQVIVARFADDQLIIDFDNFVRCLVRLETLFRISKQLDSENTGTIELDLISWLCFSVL

ORF 73 = target: T8, ORF 73 (Human herpesvirus 8, UniProt O40947); assay: KSHV LANA DNA-binding disruption – biochemical, fluorescence polarization, cherry-picked samples, dose response (AID 504725); set-up: species or system Human gammaherpesvirus 8;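 further: fluorescence polarization of a labeled DNA duplex reporting LANA DNA binding; potency is for inhibitors that block LANA binding to the DNA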
T8 sequence (O40947 whole entry): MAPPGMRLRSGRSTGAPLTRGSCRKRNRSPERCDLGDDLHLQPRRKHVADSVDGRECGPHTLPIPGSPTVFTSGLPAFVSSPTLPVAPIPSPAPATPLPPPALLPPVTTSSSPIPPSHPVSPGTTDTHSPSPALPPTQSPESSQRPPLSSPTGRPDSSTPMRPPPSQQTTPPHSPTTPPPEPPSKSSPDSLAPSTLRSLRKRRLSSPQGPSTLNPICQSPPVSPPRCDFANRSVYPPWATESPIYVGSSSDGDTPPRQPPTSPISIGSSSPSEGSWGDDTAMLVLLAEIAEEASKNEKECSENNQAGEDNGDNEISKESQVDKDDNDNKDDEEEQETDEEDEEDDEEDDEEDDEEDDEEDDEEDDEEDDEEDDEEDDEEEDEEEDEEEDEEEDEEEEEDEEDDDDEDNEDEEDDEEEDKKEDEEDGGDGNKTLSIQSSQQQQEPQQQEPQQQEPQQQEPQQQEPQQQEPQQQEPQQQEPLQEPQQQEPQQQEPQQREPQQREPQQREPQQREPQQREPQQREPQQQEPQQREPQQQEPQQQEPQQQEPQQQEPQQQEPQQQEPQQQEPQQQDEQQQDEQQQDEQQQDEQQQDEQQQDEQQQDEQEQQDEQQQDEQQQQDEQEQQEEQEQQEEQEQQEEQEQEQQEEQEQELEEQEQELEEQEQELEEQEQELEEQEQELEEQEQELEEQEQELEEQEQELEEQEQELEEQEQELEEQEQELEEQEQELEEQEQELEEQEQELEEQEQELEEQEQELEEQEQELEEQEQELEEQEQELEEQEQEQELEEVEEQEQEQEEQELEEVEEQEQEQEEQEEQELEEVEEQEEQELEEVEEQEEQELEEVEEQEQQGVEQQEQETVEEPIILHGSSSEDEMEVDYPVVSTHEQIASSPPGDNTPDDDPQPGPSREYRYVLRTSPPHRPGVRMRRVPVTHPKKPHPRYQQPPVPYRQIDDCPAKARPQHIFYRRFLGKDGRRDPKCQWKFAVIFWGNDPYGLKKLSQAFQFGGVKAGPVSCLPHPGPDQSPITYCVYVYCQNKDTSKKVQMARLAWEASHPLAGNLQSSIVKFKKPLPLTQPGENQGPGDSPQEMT

[12] = target: T9, Short transient receptor potential channel 4 (Mus musculus, UniProt Q9QUQ5); assay: calcium entry via TRPC4 opening agents – cell-based, HEK293 TRPC4/mu-opioid, Fluo-4 calcium, dose response (AID 434937); type: functional
T9 sequence (Q9QUQ5 whole entry): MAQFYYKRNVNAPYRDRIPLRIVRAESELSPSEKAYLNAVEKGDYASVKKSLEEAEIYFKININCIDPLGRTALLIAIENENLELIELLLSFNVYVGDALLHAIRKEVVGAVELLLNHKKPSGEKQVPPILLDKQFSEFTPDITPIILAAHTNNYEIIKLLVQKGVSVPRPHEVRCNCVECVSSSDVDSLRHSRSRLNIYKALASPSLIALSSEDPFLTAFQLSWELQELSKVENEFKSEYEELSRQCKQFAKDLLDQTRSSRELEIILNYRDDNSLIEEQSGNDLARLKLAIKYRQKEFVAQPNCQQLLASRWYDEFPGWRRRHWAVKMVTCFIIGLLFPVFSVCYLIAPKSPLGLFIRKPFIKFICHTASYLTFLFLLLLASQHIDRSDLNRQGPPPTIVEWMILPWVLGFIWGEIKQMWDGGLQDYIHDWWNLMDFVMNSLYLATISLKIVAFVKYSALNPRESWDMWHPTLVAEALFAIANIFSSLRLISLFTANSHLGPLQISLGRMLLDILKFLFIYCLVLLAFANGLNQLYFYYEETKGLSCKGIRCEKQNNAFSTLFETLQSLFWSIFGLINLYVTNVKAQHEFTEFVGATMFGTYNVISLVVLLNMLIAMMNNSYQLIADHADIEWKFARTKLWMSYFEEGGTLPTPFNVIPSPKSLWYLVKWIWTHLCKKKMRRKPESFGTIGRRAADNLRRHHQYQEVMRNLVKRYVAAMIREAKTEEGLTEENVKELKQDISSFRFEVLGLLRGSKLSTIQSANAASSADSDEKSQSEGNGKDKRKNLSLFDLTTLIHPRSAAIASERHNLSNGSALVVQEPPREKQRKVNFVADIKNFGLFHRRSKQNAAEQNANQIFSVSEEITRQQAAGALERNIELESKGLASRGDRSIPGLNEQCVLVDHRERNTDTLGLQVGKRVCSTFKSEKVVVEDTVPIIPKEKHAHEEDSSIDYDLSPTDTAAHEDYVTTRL

Chain of Mu-type opioid receptor (P35372 whole entry): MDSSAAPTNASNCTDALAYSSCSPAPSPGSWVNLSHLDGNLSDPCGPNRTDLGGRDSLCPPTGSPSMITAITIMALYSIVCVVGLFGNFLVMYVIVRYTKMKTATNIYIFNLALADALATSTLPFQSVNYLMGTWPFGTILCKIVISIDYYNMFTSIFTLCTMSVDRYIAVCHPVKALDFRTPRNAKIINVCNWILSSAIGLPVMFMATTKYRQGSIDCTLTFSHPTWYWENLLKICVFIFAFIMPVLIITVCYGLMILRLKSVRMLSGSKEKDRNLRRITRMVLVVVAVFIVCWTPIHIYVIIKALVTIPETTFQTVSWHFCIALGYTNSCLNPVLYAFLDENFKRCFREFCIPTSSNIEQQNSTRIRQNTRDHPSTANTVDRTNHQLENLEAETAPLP

SMILES	EC50 (Mu-type opioid receptor)	EC50 [1]	EC50 [2]	IC50 [3]	IC50 [4]	IC50 (Bcl-2-related protein A1)	other results
COc1cc(C2C(C#N)=C(N)N(c3sc4c(c3C#N)CCCC4)C3=C2C(=O)CC(C)(C)C3)cc(OC)c1OC (centres undefined)	> 92.5 µM (inactive)	> 92.5 µM (inactive)	> 92.5 µM (inactive)				AC50 (Cytochrome P450 2C9): 12.6 µM (inconclusive)
COc1cccc(NC(=O)CSc2nc3ccccc3c(=O)n2Cc2cccs2)c1				19.3 µM (active)	> 20 µM (inactive)	> 20 µM (inactive)	
CC1=Nc2ccccc2/C1=C\c1nc(-c2ccc(F)cc2)oc1O							EC50 [5]: 5.53 µM (active); EC50 [6]: > 300 µM (not active); EC50 [7]: 8.82 µM (active); EC50 (Streptokinase A): 16.6 µM (active); EC50 [8]: > 99 µM (inactive); EC50 (Streptococcus): > 150 µM (not active); CC50 [9]: > 40 µM (active); EC50 [10]: 55.9 µM (inactive)
CN(C)C(CNC(C(=O)Nc1ccc([N+](=O)[O-])cc1Br)c1ccccc1)c1ccccc1 (centres undefined)	> 92.5 µM (inactive)	> 92.5 µM (inactive)	> 92.5 µM (inactive)				IC50 [11]: 4.94 µM (not active)
Cc1cc(O)c2c(n1)c(C)cc1[nH]c(C)c(C)c12							AC50 (ORF 73): 42.3 µM (active)
C#CCOCCOCCOCCNc1nc(N2CCN(C(=O)[C@H](CCCCN)n3cc(CN)nn3)CC2)nc(N2CCN(C(=O)[C@H](CCCCN)n3cc([C@@H](N)[C@H](C)CC)nn3)CC2)n1				4.49 µM (active)	3.13 µM (active)	> 20 µM (inactive)	
CCC(=O)C(CCN1CCOCC1)(c1ccccc1)c1ccccc1	12 µM (inactive)	> 92.5 µM (inactive)	> 92.5 µM (inactive)				EC50 [12]: 0.376 µM (active)
CCOC(=O)C1(Cc2ccccc2)CCN(Cc2cccn2-c2cccnc2)CC1	> 92.5 µM (inactive)	> 92.5 µM (inactive)	> 92.5 µM (inactive)				EC50 [12]: 0.841 µM (active)
Cc1nc(N)sc1C(=O)N/N=C/c1cccnc1				1.68 µM (active)	1.89 µM (active)	> 20 µM (inactive)	
